Experimental findings from patent US20070202116A1, “Treatment of micro-organism infection” (priority 2001, published 2007) are described below.

Series [1] has as its system EMRSA strains. The series is described as follows: MIC of vancomycin or flucloxacillin with and without Aurograb (Table 3a). It is filed as cell-based, S. aureus. Conditions: Staphylococcus aureus; all EMRSA strains; read-out: MIC of flucloxacillin. On the procedure:
Strains of MRSA were grown overnight in nutrient broth and diluted to give an inoculum of 1×10^3 cells per mL. […] Cultures were incubated for a further 2 days. The minimum growth-inhibitory concentration (MIC) is defined as the […] concentration of antibiotic at which no bacterial growth occurs and is determined by spectrophotometric evaluation of the lack of turbidity (growth) in culture. MICs were determined in the presence of exogenous Aurograb or in the presence of Aurograb formulation buffer (negative control).
The experiments were also performed using flucloxacillin instead of vancomycin to investigate how the efficacy of penicillin-type […] was affected by Aurograb.

Series [2] relates to human blood. The series is described as follows: Blood compatibility study (haemolysis). How it is done: This study was carried out by Biochemical Pharmacology department at Inveresk Research, Scotland, in order to assess the suitability of Aurograb for intravenous administration.
Blood samples were taken from healthy human volunteers, transferred to tubes containing Aurograb, Aurograb vehicle, saponin or saline and incubated at 37° C. for 1 hour. After centrifugation, the amount of haemoglobin in the supernatant was then assessed to determine haemolysis.

The MIC is the lowest concentration that inhibits growth of the organism. `Cc1onc(-c2c(F)cccc2Cl)c1C(=O)N[C@@H]1C(=O)N2[C@@H]1SC(C)(C)[C@@H]2C(=O)O` [flucloxacillin]: in series [1], the MIC was more than 256 µg/mL.

Take saponin: the “Haemolysis classification (ASTM F756-93)” value in series [2] is “severely haemolytic”.
